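Assay format: 96-well plates, 48-hour exposure. The concentration for full growth arrest is given as TGI.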
The molecules below were run on OVCAR-3 ovarian (assay: NCI anticancer screen, dose series, 48 h).
For COC(=O)C(Cc1c[nH]c2ccccc12)N=C1Nc2ccncc2S(=O)(=O)N1c1ccccc1 (stereo not drawn), the TGI was 99.5 µM.
In the case of O/N=C(\c1ccccc1)N1CCCCC1, the TGI is reported as over 100 µM.

Each molecule was assayed on SNB-75 CNS (assay: NCI anticancer screen, dose series, 48 h).
C=C1C(=O)C23CC1C[C@H](OC(C)=O)[C@H]2C1(C)C(OC(C)=O)C[C@H](O)C(C)(C)[C@H]1C(=O)[C@@H]3OC(C)=O (stereo partly drawn) gave a TGI of 32.8 µM.
Work on O=C1NC(=O)C(Cc2ccccc2)(c2cccnc2)N1 (stereo not drawn) yielded a TGI of over 100 µM.
In the case of COC(=O)c1s/c(=N\C(=S)N(C)C)n(-c2ccccc2)c1C(=O)OC, the TGI is reported as over 100 µM.
With COc1ccc(/C=C2\CCC(CNc3cc(C)on3)C2=O)cc1 (stereo not drawn) the TGI was over 76.4 µM.
Work on COC(=O)C(Cc1c[nH]c2ccccc12)N=C1Nc2ccncc2S(=O)(=O)N1c1ccccc1 (stereo not drawn) yielded a TGI of 75 µM.
Molecule O/N=C(\c1ccccc1)N1CCCCC1 has a TGI of over 100 µM.

The molecules below were run on OVCAR-4 ovarian (assay: NCI anticancer screen, dose series, 48 h).
With COc1cc(/C=C(\C#N)C(=O)c2ccccc2)ccc1OCc1ccccc1 the TGI was over 100 µM.
Molecule C=C1C(=O)C23CC1C[C@H](OC(C)=O)[C@H]2C1(C)C(OC(C)=O)C[C@H](O)C(C)(C)[C@H]1C(=O)[C@@H]3OC(C)=O (stereo partly drawn) has a TGI of 16.3 µM.
O=C1NC(=O)C(Cc2ccccc2)(c2cccnc2)N1 (stereo not drawn) was tested, and the TGI was over 100 µM.
In the case of COC(=O)c1s/c(=N\C(=S)N(C)C)n(-c2ccccc2)c1C(=O)OC, the TGI is reported as over 100 µM.
In the case of COc1ccc(/C=C2\CCC(CNc3cc(C)on3)C2=O)cc1 (stereo not drawn), the TGI is reported as over 100 µM.
With COC(=O)C(Cc1c[nH]c2ccccc12)N=C1Nc2ccncc2S(=O)(=O)N1c1ccccc1 (stereo not drawn) the TGI was 75.7 µM.
Molecule O/N=C(\c1ccccc1)N1CCCCC1 has a TGI of over 100 µM.

The molecules below were run on SW-620 colon (assay: NCI anticancer screen, dose series, 48 h).
COc1cc(/C=C(\C#N)C(=O)c2ccccc2)ccc1OCc1ccccc1 was tested, and the TGI was over 100 µM.
Molecule C=C1C(=O)C23CC1C[C@H](OC(C)=O)[C@H]2C1(C)C(OC(C)=O)C[C@H](O)C(C)(C)[C@H]1C(=O)[C@@H]3OC(C)=O (stereo partly drawn) has a TGI of 3.6 µM.
O=C1NC(=O)C(Cc2ccccc2)(c2cccnc2)N1 (stereo not drawn) gave a TGI of over 100 µM.
Work on COC(=O)c1s/c(=N\C(=S)N(C)C)n(-c2ccccc2)c1C(=O)OC yielded a TGI of over 100 µM.
Work on COc1ccc(/C=C2\CCC(CNc3cc(C)on3)C2=O)cc1 (stereo not drawn) yielded a TGI of over 100 µM.
COC(=O)C(Cc1c[nH]c2ccccc12)N=C1Nc2ccncc2S(=O)(=O)N1c1ccccc1 (stereo not drawn) gave a TGI of 99.3 µM.
O/N=C(\c1ccccc1)N1CCCCC1 showed a TGI of over 100 µM.

These molecules were tested on DMS 273 small cell lung (assay: NCI anticancer screen, dose series, 48 h).
For COC(=O)c1s/c(=N\C(=S)N(C)C)n(-c2ccccc2)c1C(=O)OC, the TGI was over 100 µM.
Work on O/N=C(\c1ccccc1)N1CCCCC1 yielded a TGI of over 100 µM.

The molecules below were run on HCC-2998 colon (assay: NCI anticancer screen, dose series, 48 h).
Molecule COc1cc(/C=C(\C#N)C(=O)c2ccccc2)ccc1OCc1ccccc1 has a TGI of over 100 µM.
C=C1C(=O)C23CC1C[C@H](OC(C)=O)[C@H]2C1(C)C(OC(C)=O)C[C@H](O)C(C)(C)[C@H]1C(=O)[C@@H]3OC(C)=O (stereo partly drawn) showed a TGI of 35.9 µM.
Molecule O=C1NC(=O)C(Cc2ccccc2)(c2cccnc2)N1 (stereo not drawn) has a TGI of over 100 µM.
With COC(=O)c1s/c(=N\C(=S)N(C)C)n(-c2ccccc2)c1C(=O)OC the TGI was over 100 µM.
For COc1ccc(/C=C2\CCC(CNc3cc(C)on3)C2=O)cc1 (stereo not drawn), the TGI was over 100 µM.
Molecule COC(=O)C(Cc1c[nH]c2ccccc12)N=C1Nc2ccncc2S(=O)(=O)N1c1ccccc1 (stereo not drawn) has a TGI of 60.8 µM.
Molecule O/N=C(\c1ccccc1)N1CCCCC1 has a TGI of over 100 µM.

What follows are molecules tested on NCI-H522 lung (assay: NCI anticancer screen, dose series, 48 h).
COc1cc(/C=C(\C#N)C(=O)c2ccccc2)ccc1OCc1ccccc1 was tested, and the TGI was over 100 µM.
C=C1C(=O)C23CC1C[C@H](OC(C)=O)[C@H]2C1(C)C(OC(C)=O)C[C@H](O)C(C)(C)[C@H]1C(=O)[C@@H]3OC(C)=O (stereo partly drawn) showed a TGI of 3.48 µM.
O=C1NC(=O)C(Cc2ccccc2)(c2cccnc2)N1 (stereo not drawn) gave a TGI of over 100 µM.
COC(=O)c1s/c(=N\C(=S)N(C)C)n(-c2ccccc2)c1C(=O)OC gave a TGI of over 100 µM.
COc1ccc(/C=C2\CCC(CNc3cc(C)on3)C2=O)cc1 (stereo not drawn) was tested, and the TGI was over 100 µM.
COC(=O)C(Cc1c[nH]c2ccccc12)N=C1Nc2ccncc2S(=O)(=O)N1c1ccccc1 (stereo not drawn) was tested, and the TGI was over 100 µM.
O/N=C(\c1ccccc1)N1CCCCC1 gave a TGI of over 100 µM.

Each molecule was assayed on NCI-H23 lung (assay: NCI anticancer screen, dose series, 48 h).
In the case of COc1cc(/C=C(\C#N)C(=O)c2ccccc2)ccc1OCc1ccccc1, the TGI is reported as over 100 µM.
Work on C=C1C(=O)C23CC1C[C@H](OC(C)=O)[C@H]2C1(C)C(OC(C)=O)C[C@H](O)C(C)(C)[C@H]1C(=O)[C@@H]3OC(C)=O (stereo partly drawn) yielded a TGI of 15.2 µM.
O=C1NC(=O)C(Cc2ccccc2)(c2cccnc2)N1 (stereo not drawn) showed a TGI of over 100 µM.
Work on COC(=O)c1s/c(=N\C(=S)N(C)C)n(-c2ccccc2)c1C(=O)OC yielded a TGI of over 100 µM.
COc1ccc(/C=C2\CCC(CNc3cc(C)on3)C2=O)cc1 (stereo not drawn) gave a TGI of over 100 µM.
COC(=O)C(Cc1c[nH]c2ccccc12)N=C1Nc2ccncc2S(=O)(=O)N1c1ccccc1 (stereo not drawn) showed a TGI of over 100 µM.
Molecule O/N=C(\c1ccccc1)N1CCCCC1 has a TGI of over 100 µM.

The molecules below were run on HT29 colon (assay: NCI anticancer screen, dose series, 48 h).
C=C1C(=O)C23CC1C[C@H](OC(C)=O)[C@H]2C1(C)C(OC(C)=O)C[C@H](O)C(C)(C)[C@H]1C(=O)[C@@H]3OC(C)=O (stereo partly drawn) gave a TGI of 17 µM.
O=C1NC(=O)C(Cc2ccccc2)(c2cccnc2)N1 (stereo not drawn) was tested, and the TGI was over 100 µM.
COC(=O)c1s/c(=N\C(=S)N(C)C)n(-c2ccccc2)c1C(=O)OC gave a TGI of over 100 µM.
Work on COc1ccc(/C=C2\CCC(CNc3cc(C)on3)C2=O)cc1 (stereo not drawn) yielded a TGI of over 100 µM.
Work on COC(=O)C(Cc1c[nH]c2ccccc12)N=C1Nc2ccncc2S(=O)(=O)N1c1ccccc1 (stereo not drawn) yielded a TGI of 44.9 µM.
O/N=C(\c1ccccc1)N1CCCCC1 gave a TGI of over 100 µM.

The molecules below were run on UO-31 renal (assay: NCI anticancer screen, dose series, 48 h).
With COc1cc(/C=C(\C#N)C(=O)c2ccccc2)ccc1OCc1ccccc1 the TGI was over 100 µM.
Molecule C=C1C(=O)C23CC1C[C@H](OC(C)=O)[C@H]2C1(C)C(OC(C)=O)C[C@H](O)C(C)(C)[C@H]1C(=O)[C@@H]3OC(C)=O (stereo partly drawn) has a TGI of 9.75 µM.
Molecule O=C1NC(=O)C(Cc2ccccc2)(c2cccnc2)N1 (stereo not drawn) has a TGI of over 100 µM.
COC(=O)c1s/c(=N\C(=S)N(C)C)n(-c2ccccc2)c1C(=O)OC was tested, and the TGI was over 100 µM.
COc1ccc(/C=C2\CCC(CNc3cc(C)on3)C2=O)cc1 (stereo not drawn) showed a TGI of over 100 µM.
For COC(=O)C(Cc1c[nH]c2ccccc12)N=C1Nc2ccncc2S(=O)(=O)N1c1ccccc1 (stereo not drawn), the TGI was over 100 µM.
Work on O/N=C(\c1ccccc1)N1CCCCC1 yielded a TGI of over 100 µM.

Each molecule was assayed on A498 renal (assay: NCI anticancer screen, dose series, 48 h).
C=C1C(=O)C23CC1C[C@H](OC(C)=O)[C@H]2C1(C)C(OC(C)=O)C[C@H](O)C(C)(C)[C@H]1C(=O)[C@@H]3OC(C)=O (stereo partly drawn) showed a TGI of 29.7 µM.
O=C1NC(=O)C(Cc2ccccc2)(c2cccnc2)N1 (stereo not drawn) gave a TGI of over 100 µM.
In the case of COC(=O)c1s/c(=N\C(=S)N(C)C)n(-c2ccccc2)c1C(=O)OC, the TGI is reported as over 100 µM.
For COc1ccc(/C=C2\CCC(CNc3cc(C)on3)C2=O)cc1 (stereo not drawn), the TGI was over 100 µM.
COC(=O)C(Cc1c[nH]c2ccccc12)N=C1Nc2ccncc2S(=O)(=O)N1c1ccccc1 (stereo not drawn) was tested, and the TGI was over 100 µM.

These molecules were tested on UACC-257 melanoma (assay: NCI anticancer screen, dose series, 48 h).
Work on COc1cc(/C=C(\C#N)C(=O)c2ccccc2)ccc1OCc1ccccc1 yielded a TGI of over 100 µM.
C=C1C(=O)C23CC1C[C@H](OC(C)=O)[C@H]2C1(C)C(OC(C)=O)C[C@H](O)C(C)(C)[C@H]1C(=O)[C@@H]3OC(C)=O (stereo partly drawn) was tested, and the TGI was 11 µM.
For O=C1NC(=O)C(Cc2ccccc2)(c2cccnc2)N1 (stereo not drawn), the TGI was over 100 µM.
In the case of COC(=O)c1s/c(=N\C(=S)N(C)C)n(-c2ccccc2)c1C(=O)OC, the TGI is reported as over 100 µM.
COc1ccc(/C=C2\CCC(CNc3cc(C)on3)C2=O)cc1 (stereo not drawn) gave a TGI of over 100 µM.
COC(=O)C(Cc1c[nH]c2ccccc12)N=C1Nc2ccncc2S(=O)(=O)N1c1ccccc1 (stereo not drawn) showed a TGI of over 100 µM.
O/N=C(\c1ccccc1)N1CCCCC1 showed a TGI of over 100 µM.

These molecules were tested on T-47D breast (assay: NCI anticancer screen, dose series, 48 h).
Work on C=C1C(=O)C23CC1C[C@H](OC(C)=O)[C@H]2C1(C)C(OC(C)=O)C[C@H](O)C(C)(C)[C@H]1C(=O)[C@@H]3OC(C)=O (stereo partly drawn) yielded a TGI of 5.44 µM.
O=C1NC(=O)C(Cc2ccccc2)(c2cccnc2)N1 (stereo not drawn) showed a TGI of over 100 µM.
COc1ccc(/C=C2\CCC(CNc3cc(C)on3)C2=O)cc1 (stereo not drawn) gave a TGI of over 91.1 µM.
COC(=O)C(Cc1c[nH]c2ccccc12)N=C1Nc2ccncc2S(=O)(=O)N1c1ccccc1 (stereo not drawn) was tested, and the TGI was 51 µM.

These molecules were tested on COLO 205 colon (assay: NCI anticancer screen, dose series, 48 h).
In the case of COc1cc(/C=C(\C#N)C(=O)c2ccccc2)ccc1OCc1ccccc1, the TGI is reported as over 100 µM.
C=C1C(=O)C23CC1C[C@H](OC(C)=O)[C@H]2C1(C)C(OC(C)=O)C[C@H](O)C(C)(C)[C@H]1C(=O)[C@@H]3OC(C)=O (stereo partly drawn) showed a TGI of 4.8 µM.
O=C1NC(=O)C(Cc2ccccc2)(c2cccnc2)N1 (stereo not drawn) was tested, and the TGI was over 100 µM.
COC(=O)c1s/c(=N\C(=S)N(C)C)n(-c2ccccc2)c1C(=O)OC gave a TGI of over 100 µM.
In the case of COc1ccc(/C=C2\CCC(CNc3cc(C)on3)C2=O)cc1 (stereo not drawn), the TGI is reported as over 100 µM.
Molecule COC(=O)C(Cc1c[nH]c2ccccc12)N=C1Nc2ccncc2S(=O)(=O)N1c1ccccc1 (stereo not drawn) has a TGI of 33.9 µM.
O/N=C(\c1ccccc1)N1CCCCC1 showed a TGI of over 100 µM.

The molecules below were run on K-562 leukemia (assay: NCI anticancer screen, dose series, 48 h).
Work on COc1cc(/C=C(\C#N)C(=O)c2ccccc2)ccc1OCc1ccccc1 yielded a TGI of over 100 µM.
C=C1C(=O)C23CC1C[C@H](OC(C)=O)[C@H]2C1(C)C(OC(C)=O)C[C@H](O)C(C)(C)[C@H]1C(=O)[C@@H]3OC(C)=O (stereo partly drawn) gave a TGI of over 21 µM.
O=C1NC(=O)C(Cc2ccccc2)(c2cccnc2)N1 (stereo not drawn) was tested, and the TGI was over 100 µM.
For COC(=O)c1s/c(=N\C(=S)N(C)C)n(-c2ccccc2)c1C(=O)OC, the TGI was over 100 µM.
With COc1ccc(/C=C2\CCC(CNc3cc(C)on3)C2=O)cc1 (stereo not drawn) the TGI was over 100 µM.
COC(=O)C(Cc1c[nH]c2ccccc12)N=C1Nc2ccncc2S(=O)(=O)N1c1ccccc1 (stereo not drawn) showed a TGI of 51.8 µM.

Each molecule was assayed on 786-0 renal (assay: NCI anticancer screen, dose series, 48 h).
COc1cc(/C=C(\C#N)C(=O)c2ccccc2)ccc1OCc1ccccc1 gave a TGI of over 100 µM.
Work on C=C1C(=O)C23CC1C[C@H](OC(C)=O)[C@H]2C1(C)C(OC(C)=O)C[C@H](O)C(C)(C)[C@H]1C(=O)[C@@H]3OC(C)=O (stereo partly drawn) yielded a TGI of 9.64 µM.
O=C1NC(=O)C(Cc2ccccc2)(c2cccnc2)N1 (stereo not drawn) showed a TGI of over 100 µM.
With COC(=O)c1s/c(=N\C(=S)N(C)C)n(-c2ccccc2)c1C(=O)OC the TGI was over 100 µM.
For COc1ccc(/C=C2\CCC(CNc3cc(C)on3)C2=O)cc1 (stereo not drawn), the TGI was over 100 µM.
COC(=O)C(Cc1c[nH]c2ccccc12)N=C1Nc2ccncc2S(=O)(=O)N1c1ccccc1 (stereo not drawn) gave a TGI of over 100 µM.

— PubChem BioAssay (NCI)
